From patent publication US20110262502A1, “PULMONARY DELIVERY OF 17-HYDROXYPROGESTERONE CAPROATE (17-HPC)” (Prairie Pharmaceuticals LLC, priority 2010, published 2011)

Test system: PHA-induced IL-2 release in IL-2 and IL-4 treated (steroid resistant) PBMCs
Experiment: IL-2/IL-4 induced steroid resistance model in PBMCs: dexamethasone inhibition of PHA-induced IL-2 release
Type: cell-based, human
Settings: for PHA-induced IL-2 level: FIG. 5
Protocol: J Immunol 2009; 183; 164-171). […] Following PBMCs stimulation with mitogen phytohaemagglutinin (PHA), there is a strong correlation between cytokine secretion levels and steroid resistance as well as steroid sensitivity in vitro. Addition of IL-2, IL-4 and TNF-reduce steroid sensitivity.
PBMCs (2×10^6) were incubated with or without IL-2 (13 ng/ml) and IL-4 (6.5 ng/ml) for 48 hours in RPMI-1640 medium containing 10% FCS and 2 mM glutamine. […] IL-2 and IL-4 stimulated PBMCs were also plated at a concentration of 10^6 cells/ml in 96-well plates ready for PHA (15 μg/mL, 24 hours) stimulation of cytokine release and detection by ELISA.
IL-2/4 induced steroid resistance in PBMCs, a well-recognized study model, was used to evaluate potential modifiers of steroid resistance and sensitivity. PBMCs from healthy smokers were collected. Corticosteroid insensitivity or resistance was induced by adding IL-2 and IL-4 in peripheral blood mononuclear cells (PBMCs) from healthy male smokers (n=˜11). […] IL-2 levels were quantified using ELISA.
J Immunol 2009; 183; 164-171).
IL-2 levels were quantified using ELISA.

[1] = FIG. 4, high dose Dexamethasone 10^−6 M

CCCCCC(=O)O[C@]1(C(C)=O)CC[C@H]2[C@@H]3CCC4=CC(=O)CC[C@]4(C)[C@H]3CC[C@@]21C [17HPC, 17α-HYDROXYPROGESTERONE CAPROATE]
highest improvement rate in Imax [1]: 18% | improvement rate in Imax at all dose levels [1]: 16-18% | PHA-induced IL-2 level (Dexamethasone 10^−10 M + 17HPC 10^−5M): 1595 pg/mL | PHA-induced IL-2 level (Dexamethasone 10^−10 M + 17HPC 10^−7M): 1805 pg/mL | PHA-induced IL-2 level (Dexamethasone 10^−10 M + 17HPC 10^−10 M): 2119 pg/mL | subjects with more than 10% improvement in % maximal Dexamethasone inhibition (FIG. 6, Dexamethasone 10^−6 M): Ten out of 11
